What follows are compounds tested against T1, acetylcholinesterase (AChE) isolated from Electrophorus electricus (Electrophorus electricus, UniProt O42275) (assay: biochemical). Details: AChE IC50.
T1 construct: AChE isolated from Electrophorus electricus; from tissue
T1 sequence (O42275 24-633): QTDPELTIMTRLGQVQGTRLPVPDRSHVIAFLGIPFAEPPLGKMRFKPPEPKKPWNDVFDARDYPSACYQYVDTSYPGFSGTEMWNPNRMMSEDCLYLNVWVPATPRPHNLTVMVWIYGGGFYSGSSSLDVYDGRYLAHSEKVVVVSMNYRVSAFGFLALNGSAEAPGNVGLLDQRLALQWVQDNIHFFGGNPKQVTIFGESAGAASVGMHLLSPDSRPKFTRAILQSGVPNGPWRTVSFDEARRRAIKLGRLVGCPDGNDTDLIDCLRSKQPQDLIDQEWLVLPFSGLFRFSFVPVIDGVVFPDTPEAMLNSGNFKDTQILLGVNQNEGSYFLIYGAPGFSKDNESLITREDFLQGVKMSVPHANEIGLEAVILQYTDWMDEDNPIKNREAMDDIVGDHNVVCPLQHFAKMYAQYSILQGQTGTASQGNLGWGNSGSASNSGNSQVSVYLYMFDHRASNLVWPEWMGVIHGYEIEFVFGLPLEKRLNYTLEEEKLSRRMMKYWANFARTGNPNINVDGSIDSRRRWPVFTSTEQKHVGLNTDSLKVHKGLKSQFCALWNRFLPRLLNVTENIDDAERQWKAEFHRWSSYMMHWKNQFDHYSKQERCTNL

SMILES | IC50
CC[C@H](C)C(=O)N[C@H]1CC=C2C[C@H]3C(=O)C[C@]4(C)[C@@H]([C@H](C)N(C)C)[C@H](OC(C)=O)C[C@@]4(C)[C@@H]3CC[C@H]2[C@]1(C)CO [Compound 65] | 7.94 µM
CC(C)C1=NC2CCC34C[C@]35C(=O)C[C@]3(C)[C@@H]([C@H](C)N(C)C)[C@H](O)C[C@@]3(C)[C@@H]5CC[C@H]4[C@]2(C)CN1 (stereo partly drawn) [Compound 51, (20S)-20-dimethylamino-9,19-cyclo-4β,14α-dimethyl-(2-isopropyl-5β-methyl-1,4,5,6-tetrahydro-pyrimidin-5-yl)-5α,9β-pregnan-16α-ol-11-one] | 0.018 µM

Same assay, conditions: AChE isolated from Electrophorus electricus; read-out: AChE IC50

SMILES | IC50
CN[C@@H](C)[C@H]1[C@H](OC(=O)C(C)(C)C)C[C@@]2(C)[C@@H]3CC[C@@H]4C5(CC[C@H](NC(=O)C(C)C)[C@@]4(C)C=O)C[C@@]35C(=O)C[C@]12C (stereo partly drawn) [Compound 43, (20S)-3β-isobutyrylamino-20-methylamino-9,19-cyclo-4β,14α-dimethyl-4α-formyl-16α-pivalyl-5α,9β-pregnan-11-one] | > 100 µM
CC(C)C(=O)N[C@H]1CCC23C[C@]24C(=O)C[C@]2(C)[C@@H]([C@H](C)N(C)C)[C@H](O[Si](C)(C)C(C)(C)C)C[C@@]2(C)[C@@H]4CC[C@H]3[C@]1(C)CNC([Si](C)(C)C)[Si](C)(C)C (stereo partly drawn) [Compound 57, (20S)-3β-isobutyrylamino-20-dimethylamino-9,19-cyclo-4β,14α-dimethyl-4α-(bis-(trimethylsilanyl)methylamino)methyl-16α-(tert-butyl-dimethyl-silanyloxy)-5α,9β-pregnan-11-one] | > 100 µM
CC[C@H](C)C(=O)N[C@H]1CC=C2C[C@H]3C(=O)C[C@]4(C)[C@@H]([C@H](C)N(C)C)[C@H](O)C[C@@]4(C)[C@@H]3CC[C@H]2[C@]1(C)CNCc1ccccc1 [Compound 69, (20S)-10(9->1)abeo-20-dimethylamino-3β-((S)-2-methylbutyrylamino)-4α-benzylaminomethyl-4β,14α-dimethyl-5α,9β-pregn-1(10)-en-16α-ol-11-one] | > 100 µM
CC(C)C(=O)N[C@H]1CCC23C[C@]24C(=O)C[C@]2(C)[C@@H]([C@H](C)N(C)C)[C@H](O)C[C@@]2(C)[C@@H]4CC[C@H]3[C@]1(C)CNC([Si](C)(C)C)[Si](C)(C)C (stereo partly drawn) [Compound 55, (20S)-3β-isobutyrylamino-20-dimethylamino-9,19-cyclo-4β,14α-dimethyl-4α-(bis-(trimethylsilanyl)methylamino)methyl-5α,9β-pregnan-16α-ol-11-one] | > 100 µM
CC(=O)OC[C@]1(C)[C@@H](NC(=O)C(C)C)CCC23C[C@]24C(=O)C[C@]2(C)[C@@H]([C@H](C)N(C)C)[C@H](O)C[C@@]2(C)[C@@H]4CC[C@H]31 (stereo partly drawn) [Compound 41, (20S)-3β-isobutyrylamino-20-dimethylamino-9,19-cyclo-4β,14α-dimethyl-4α-acetylmethyl-5α,9β-pregnan-16α-ol-11-one] | > 100 µM
CC[C@H](C)C(=O)N[C@H]1CCC23C[C@]24C(=O)C[C@]2(C)[C@@H]([C@H](C)N(C)C)[C@H](O)C[C@@]2(C)[C@@H]4CC[C@H]3[C@]1(C)C=O (stereo partly drawn) [Compound 60, (20S)-20-dimethylamino-3β-((S)-2-methylbutyrylamino)-9,19-cyclo-4α-formyl-4β,14α-dimethyl-5α,9β-pregnan-16α-ol-11-one] | > 100 µM
CC(C)C(=O)N[C@H]1CCC23C[C@]24C(=O)C[C@]2(C)[C@@H]([C@H](C)N(C)C)[C@H](OC(=O)C(C)(C)C)C[C@@]2(C)[C@@H]4CC[C@H]3[C@]1(C)CNCc1ccccc1 (stereo partly drawn) [Compound 47, (20S)-3β-isobutyrylamino-20-dimethylamino-9,19-cyclo-4α-benzylaminomethyl-4β,14α-dimethyl-16α-pivalyl-5α,9β-pregnan-11-one] | 20.1 µM
CC(C)C(=O)NC1CCC23C[C@]24C(=O)C[C@]2(C)[C@@H]([C@H](C)N(C)C)[C@H](OC(=O)C(C)(C)C)C[C@@]2(C)[C@@H]4CC[C@H]3[C@]1(C)CN (stereo partly drawn) [Compound 50, (20S)-3β-isobutyrylamino-20-dimethylamino-9,19-cyclo-4α-aminomethyl-4β,14α-dimethyl-16α-pivalyl-5α,9β-pregnan-11-one] | 1.33 µM
CC(C)C(=O)N[C@H]1CCC23C[C@]24C(=O)C[C@]2(C)[C@@H]([C@H](C)N(C)C)[C@H](OC(=O)C(C)(C)C)C[C@@]2(C)[C@@H]4CC[C@H]3[C@]1(C)/C=N/C([Si](C)(C)C)[Si](C)(C)C (stereo partly drawn) [Compound 54, (20S)-3β-isobutyrylamino-20-dimethylamino-9,19-cyclo-4β,14α-dimethyl-4α-(bis-(trimethylsilanyl)methylimino)methyl-16α-pivalyl-5α,9β-pregnan-11-one] | > 100 µM
CC(C)C(=O)N[C@H]1CC[C@]23CC24C(=O)C[C@]2(C)[C@@H]([C@H](C)N(C)C)[C@H](O)C[C@@]2(C)[C@@H]4CC[C@H]3[C@]1(C)CS (some centres unmarked) [Compound 76] | 43 µM
CC[C@H](C)C(=O)N[C@H]1CCC23C[C@]24C(=O)C[C@]2(C)[C@@H]([C@H](C)N(C)C)[C@H](O)C[C@@]2(C)[C@@H]4CC[C@H]3[C@]1(C)CNCc1ccccc1 (stereo partly drawn) [Compound 62, (20S)-20-dimethylamino-3β-((S)-2-methylbutyrylamino)-9,19-cyclo-4α-benzylaminomethyl-4β,14α-dimethyl-5α,9β-pregnan-16α-ol-11-one] | ≥ 100 µM
Cc1ccc(S(=O)(=O)O[C@@H]2C[C@@]3(C)[C@@H]4CC[C@@H]5C6(CC[C@H](NC(=O)C(C)C)[C@@]5(C)CO)C[C@@]46C(=O)C[C@]3(C)[C@H]2[C@H](C)N(C)C)cc1 (stereo partly drawn) [Compound 36, (20S)-3β-isobutyrylamino-20-dimethylamino-9,19-cyclo-4β,14α-dimethyl-4α-hydroxymethyl-16α-tosyl-5α,9β-pregnan-11-one] | > 100 µM
CC[C@H](C)C(=O)N[C@H]1CCC23C[C@]24C(=O)C[C@]2(C)[C@@H]([C@H](C)N(C)C)[C@H](OC(C)=O)C[C@@]2(C)[C@@H]4CC[C@H]3[C@]1(C)C=O (stereo partly drawn) [Compound 59, (20S)-16α-acetyl-3β-((S)-2-methylbutyrylamino)-20-dimethylamino-9,19-cyclo-4α-formyl-4β,14α-dimethyl-5α,9β-pregnan-11-one] | > 100 µM
CC(C)C(=O)N[C@H]1CCC23C[C@]24C(=O)C[C@]2(C)[C@@H]([C@H](C)N(C)C)[C@H](OC(=O)C(C)(C)C)C[C@@]2(C)[C@@H]4CC[C@H]3[C@]1(C)CNC([Si](C)(C)C)[Si](C)(C)C (stereo partly drawn) [Compound 56, (20S)-3β-isobutyrylamino-20-dimethylamino-9,19-cyclo-4β,14α-dimethyl-4α-(bis-(trimethylsilanyl)methylamino)methyl-16α-pivalyl-5α,9β-pregnan-11-one] | > 100 µM
CC(C)C(=O)N[C@H]1CCC23C[C@]24C(=O)C[C@]2(C)[C@@H]([C@H](C)N(C)C)[C@H](OS(C)(=O)=O)C[C@@]2(C)[C@@H]4CC[C@H]3[C@]1(C)CO (stereo partly drawn) [Compound 37, (20S)-3β-isobutyrylamino-20-dimethylamino-9,19-cyclo-4β,14α-dimethyl-4α-hydroxymethyl-16α-mesyl-5α,9β-pregnan-11-one] | ≥ 100 µM
